Source: patent publication US8609652B2, “Method of administering a methylene blue-curcumin analog for the treatment of alzheimer's disease” (DePuy Synthes Products, LLC, priority 2009, dated 2013)
Where a name gives a salt, the structure may show the parent alone. Read-outs that look alike come from different tables or passages of the source.

Tests used:
[1] = cited from earlier work
[2] = cited from earlier work; for Parent Solubility: parent phenol
PC12 cells, βA (25-35) = conditions: cited from earlier work; for anti-βA (25-35) ED50: Park, concentration required to achieve 50% cell viability
PC12 cells, βA (1-42) = conditions: cited from earlier work; for anti-βA (1-42) ED50: Park
PC12 cells = experiment: relative potency versus curcumin in in vitro protection of PC12 cells against beta amyloid insult; format: cell-based
Text: Each of the parent compounds may be obtained by the methods disclosed in Park.
It is further observed that both of these qualities can be placed into the same molecule (35).

[3] = carbamazepine peak brain tissue concentration by route (Barakat)
[4] = cited from earlier work; remark: listed apart in the source
[5] = cited from earlier work; remark: listed apart in the source
[6] = dimethylglycine ester prodrug; cited from earlier work
[7] = pH 4.4, 0.05M phosphate buffer, 10° C.; cited from earlier work

## CC(C)(C)NC[C@H](O)COc1nsnc1N1CCOCC1 [Timolol]
[1]; reservoir 10 mg/ml, 2 ml
  Flux: 200 μg/(cm^2 · h)
[1]; reservoir 20 mg/ml, 2 ml
  Flux: 250 μg/(cm^2 · h)

## C[C@]12CC[C@H]3[C@@H](CCC4=CC(=O)CC[C@@]43C)[C@@H]1CC[C@@H]2O [testosterone]
[1]
  Flux: 40 μg/(cm^2 · h)
[2]
  Parent Solubility: 10 µg/mL

## Nc1nc2c(ncn2COCCO)c(=O)[nH]1 [Acyclovir]
[2]
  solubility in water of the unmodified compound: 1400 µg/mL

## O=C(O)c1ccccc1O [Salicylic Acid]
[1]
  Flux: 41.17 μg/(cm^2 · h)

## COc1cc(/C=C/C(=O)COC(=O)/C=C/c2ccc(O)c(OC)c2)ccc1O [compound 31, 4″-(3′″-methoxy-4′″-hydroxyphenyl)-2″-oxo-3″-enebutanyl3-(3′-methoxy-4′hydroxyphenyl)propenoate]
PC12 cells, βA (25-35)
  anti-βA (25-35) ED50: 1.0 ± 0.3 µg/mL
PC12 cells, βA (1-42)
  anti-βA (1-42) ED50: 2.0 ± 0.4 µg/mL
PC12 cells; analysis of the Park data
  fold more potent than curcumin as neuroprotectant against beta amyloid: ~5 fold

## NC(=O)N1c2ccccc2C=Cc2ccccc21 [Carbamazepine]
[3]; Intranasal, 0.2 mg/kg
  Peak Brain Tissue, ~uM: ~48 µM
[3]; Intravenous, 8.0 mg/kg
  Peak Brain Tissue, ~uM: ~16 µM
[3]; Oral, 16 mg/kg
  Peak Brain Tissue, ~uM: ~12 µM
[3]; in vivo, po
  peak brain tissue concentration, intranasal versus oral dosing: about four times higher
[4]; Intranasal, 0.2 mg/kg
  Peak Brain Tissue: 12 µg/g
[4]; Intravenous, 8.0 mg/kg
  Peak Brain Tissue: 4 µg/g
[4]; Oral, 16 mg/kg
  Peak Brain Tissue: 3 µg/g

## OCCOCCN1CCN(C(c2ccccc2)c2ccc(Cl)cc2)CC1 (centres unmarked) [hydroxyzine.HCl]
[5]; pH 7.4
  octanol:water partition coefficient log Doct/pH 7.4: 2.37-2.87

## CC(C)NCC(O)COc1ccc(CC(N)=O)cc1 (centres unmarked) [Atenolol]
[1]
  Flux: 400 μg/(cm^2 · h)

## C[C@]12CC[C@H]3[C@@H](CCC4=CC(=O)CC[C@@]43C)[C@@H]1CC[C@@H]2OC(=O)[C@@H]1CCC[N+]1(C)C [testosterone-17β-stachydrine ester, chloride salt]
[1]
  iontophoretic flux: about 40 μg/(cm^2·h)

## C[C@]12CC[C@H](O)CC1=CC[C@@H]1[C@@H]2CC[C@]2(C)C(=O)CC[C@@H]12 [DHEA]
[5]
  octanol/water partition coefficient log P: 1.54

## C[C@]12CC[C@@H]3c4ccc(O)cc4CC[C@H]3[C@@H]1CC[C@@H]2O [17β-estradiol]
[6]
  CSF concentration of 17B-estradiol, intranasal versus comparable intravenous dose of the prodrug: 5-8 fold
[5]
  octanol/water partition coefficient log P: 3.1-4.0

## O=C(C=Cc1ccc(O)cc1)CC(=O)CCc1ccc(O)cc1 [compound 34, 1,7-bis(4-hydroxyphenyl)-1-heptene-3,5-dione]
PC12 cells, βA (25-35)
  anti-βA (25-35) ED50: 0.5 ± 0.2 µg/mL
PC12 cells, βA (1-42)
  anti-βA (1-42) ED50: 1.0 ± 0.3 µg/mL
PC12 cells; analysis of the Park data
  fold more potent than curcumin as neuroprotectant against beta amyloid: ~10 fold

## CCCN(CCC)C1CCc2c(O)cccc2C1 (centres unmarked) [5-OH-DPAT]
[1]; 0.5 mg/ml
  Flux: 78.4 nmol/cm/h
[1]; 1.3 mg/ml
  Flux: 187.6 nmol/cm/h
[1]; 2.3 mg/ml
  Flux: 318.2 nmol/cm/h
[1]
  Flux: 90 μg/(cm^2 · h)

## CCCCCCC(C)(C)c1cc(O)c2c(c1)OC(C)(C)[C@H]1CC=C(CO)C[C@H]21 [dexanabinol]
[2]
  Parent Solubility: 2000 to 7000 µg/mL

## COc1cc(C=CC(=O)CC(=O)C=Cc2ccc(O)cc2)ccc1O [compound 32, 1-(4-hydroxy-3-methoxyphenyl)-7-(4-hydroxyphenyl)-1,6-heptadiene-3,5-dione]
PC12 cells, βA (25-35); Kim
  anti-BA (25-35) ED50: 4.7 ± 0.1 µg/mL
PC12 cells, βA (25-35)
  anti-βA (25-35) ED50: 4.0 ± 0.5 µg/mL
PC12 cells, βA (1-42); Kim
  anti-BA (1-42) ED50: 4.2 ± 0.3 µg/mL
PC12 cells, βA (1-42)
  anti-βA (1-42) ED50: 5.0 ± 0.5 µg/mL
PC12 cells; analysis of the Kim data
  fold more potent than curcumin as neuroprotectant against beta amyloid: ~1.5 fold

## CCN(CC)CCC(=O)Oc1ccc2c(c1)CC[C@@H]1[C@@H]2CC[C@]2(C)[C@@H](O)CC[C@@H]12.Cl [3-DEAPE2HCl, 3-N,N-diethylamino propionyl ester hydrochloride]
[2]; dimethylglycine ester where the label is estradiol
  water solubility of estradiol ester prodrug: about 20 mg/ml

## CCCCOC(=O)[C@@H](N)Cc1ccc(O)c(O)c1 [L-dopa butyl ester]
[7]
  estimated time for 10% decomposition: 2.7 years

## CC(C)c1cccc(C(C)C)c1OC(=O)[C@@H]1CCCN1 [L-proline ester of propofol]
[2]
  solubility of the prodrug: about 1.1 mmol/ml
